Target: T1, PAPD5 (Homo sapiens, UniProt Q8NDF8)
T1 construct: made in house
Experiment: High-throughput luminescence (KinaseGlo) RNA polyadenylation assay, ATP utilization by recombinant PAPD5
Format: biochemical
Details: Table 4 (entries of Table 5), ratio of luminescence with inhibitor to DMSO; for Fold-change determined at compound concentration 33 μM: 33 μM compound; for Fold-change determined at compound concentration 100 μM: 100 μM compound, higher = higher inhibition
Method in brief: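 Values are ratios of inhibitor to DMSO luminescence, so larger numbers mean less ATP consumed. Screening was run in duplicate with a 2 h room-temperature reaction of recombinant PAPD5, ATP and oligo RNA substrate plus compound. Residual ATP was detected after a 10 min KinaseGlo step.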

T1 sequence (Q8NDF8 68-698 isoform Q8NDF8-5): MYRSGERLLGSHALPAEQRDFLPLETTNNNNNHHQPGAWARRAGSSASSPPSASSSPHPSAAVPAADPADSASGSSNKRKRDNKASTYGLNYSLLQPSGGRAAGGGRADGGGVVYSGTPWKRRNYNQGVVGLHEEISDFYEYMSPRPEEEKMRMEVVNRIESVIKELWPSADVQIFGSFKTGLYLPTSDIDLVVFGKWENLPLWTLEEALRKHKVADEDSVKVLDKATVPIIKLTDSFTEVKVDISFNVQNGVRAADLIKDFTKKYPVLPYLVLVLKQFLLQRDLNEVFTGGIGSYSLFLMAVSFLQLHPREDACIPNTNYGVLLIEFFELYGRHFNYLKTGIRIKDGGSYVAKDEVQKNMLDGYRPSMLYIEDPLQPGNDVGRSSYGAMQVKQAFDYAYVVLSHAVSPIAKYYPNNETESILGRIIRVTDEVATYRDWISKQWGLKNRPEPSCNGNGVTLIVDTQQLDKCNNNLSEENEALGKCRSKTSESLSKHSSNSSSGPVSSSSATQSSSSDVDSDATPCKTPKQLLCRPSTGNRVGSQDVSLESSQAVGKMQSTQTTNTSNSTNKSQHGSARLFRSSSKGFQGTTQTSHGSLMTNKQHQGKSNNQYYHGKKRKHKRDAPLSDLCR

Row | SMILES | Fold-change determined at compound concentration 33 μM | Fold-change determined at compound concentration 100 μM
1 | O=c1c2c([nH]c3nc(CNc4ccc(Br)cc4)nn13)CCC2 [Entry 152, 2-{[(4-bromophenyl)amino]methyl}-4,5,6,7-tetrahydro-8H-cyclopenta[d][1,2,4]triazolo[1,5-a]pyrimidin-8-one] | 1.146 | 1.461
2 | Cc1ccc(Cl)cc1NCc1nc2[nH]c3c(c(=O)n2n1)CCC3 [Entry 154, 2-{[(5-chloro-2-methylphenyl)amino]methyl}-4,5,6,7-tetrahydro-8H-cyclopenta[d][1,2,4]triazolo[1,5-a]pyrimidin-8-one] | 1.013 | 1.282
3 | CCCc1cc(=O)n2nc(CNc3ccc(Cl)cc3)nc2[nH]1 [Entry 155, 2-{[(4-chlorophenyl)amino]methyl}-5-propyl[1,2,4]triazolo[1,5-a]pyrimidin-7(4H)-one] | 1.097 | 1.372
4 | O=S(=O)(NC1=NC2=NC(c3ccccc3)=CC(c3ccc(F)cc3)N2N1)c1ccc(Cl)cc1 (stereo not drawn) [Entry 157, 4-chloro-N-[7-(4-fluorophenyl)-5-phenyl-1,7-dihydro-[1,2,4]triazolo[1,5-a]pyrimidin-2-yl]benzenesulfonamide] | 1.059 | 1.203
5 | CCc1nc2[nH]c(-c3ccc(C)cc3)cc(=O)n2n1 [Entry 158, 2-ethyl-5-(4-methylphenyl)[1,2,4]triazolo[1,5-a]pyrimidin-7(4H)-one] | 1.13 | 1.364
6 | Cc1ccc(S(=O)(=O)NC2=NC3=NC(c4ccccc4)=CC(c4ccc(Cl)cc4)N3N2)cc1 (stereo not drawn) [Entry 159, N-[7-(4-chlorophenyl)-5-phenyl-1,7-dihydro-[1,2,4]triazolo[1,5-a]pyrimidin-2-yl]-4-methylbenzenesulfonamide] | 1.12 | 1.22
7 | c1cc(OCCN2CCCCC2)cc(-c2n[nH]c3ccc(-c4ncn[nH]4)cc23)c1 [Entry 160, 3-[3-(2-piperidin-1-ylethoxy)phenyl]-5-(1H-1,2,4-triazol-5-yl)-1H-indazole] | 1.075 | 1.239
8 | COCc1c(Br)c(C)nc2sc3c(=O)[nH]nnc3c12 [Entry 166, 8-bromo-9-(methoxymethyl)-7-methylpyrido[3′,2′:4,5]thieno[3,2-d][1,2,3]triazin-4(3H)-one] | 1.128 | 1.321
9 | Cc1c(C(=O)N2CCCC2)oc2c1-c1nn(CC(=O)NCCCOC(C)C)cc1CC2 [Entry 168, 2-[8-methyl-7-(pyrrolidine-1-carbonyl)-4,5-dihydrofuro[2,3-g]indazol-2-yl]-N-(3-propan-2-yloxypropyl)acetamide] | 1.452 | 1.678
10 | CCOCCCNC(=O)Cn1cc2c(n1)-c1c(oc(C(=O)N3CCCC3)c1C)CC2 [Entry 169, N-(3-ethoxypropyl)-2-[8-methyl-7-(pyrrolidine-1-carbonyl)-4,5-dihydrofuro[2,3-g]indazol-2-yl]acetamide] | 1.455 | 1.879
11 | COCCNC(=O)Cn1cc2c(n1)-c1c(oc(C(=O)N3CCCC3)c1C)CC2 [Entry 171, N-(2-methoxyethyl)-2-[8-methyl-7-(pyrrolidine-1-carbonyl)-4,5-dihydrofuro[2,3-g]indazol-2-yl]acetamide] | 1.374 | 1.777
12 | Cc1ccc(Cl)cc1NC(=O)c1oc2c(c1C)-c1[nH]ncc1CC2 [Entry 174, N-(5-chloro-2-methylphenyl)-8-methyl-4,5-dihydro-1H-furo[2,3-g]indazole-7-carboxamide] | 1.278 | 1.87
13 | COc1ccc(-c2[nH]nc3nc(-c4cc(Br)ccc4OC)cc(C(=O)O)c23)cc1 [Entry 179, 6-(5-bromo-2-methoxyphenyl)-3-(4-methoxyphenyl)-2H-pyrazolo[3,4-b]pyridine-4-carboxylic acid] | 1.112 | 1.309

Now from value to compound:

Row | Fold-change determined at compound concentration 33 μM | Fold-change determined at compound concentration 100 μM | SMILES
14 | 1.312 | 1.799 | Cc1cccc(C(=O)Nc2nc3nc(-c4ccccc4)cc(=O)n3[nH]2)c1 [Entry 151, 3-methyl-N-(7-oxo-5-phenyl-1H-[1,2,4]triazolo[1,5-a]pyrimidin-2-yl)benzamide]
15 | 1.077 | 1.259 | O=c1c2c([nH]c3nc(CNc4ccccc4F)nn13)CCC2 [Entry 153, 2-{[(2-fluorophenyl)amino]methyl}-4,5,6,7-tetrahydro-8H-cyclopenta[d][1,2,4]triazolo[1,5-a]pyrimidin-8-one]
16 | 1.212 | 1.516 | CCOC(=O)c1c[nH]c2nc(NCc3cccc(Br)c3)nn2c1=O [Entry 156, ethyl 2-[(3-bromophenyl)methylamino]-7-oxo-1H-[1,2,4]triazolo[1,5-a]pyrimidine-6-carboxylate]
17 | 1.153 | 1.431 | O=c1nc(SCc2ccc(F)cc2)[nH]c2nc[nH]c12 [Entry 162, 2-[(4-fluorophenyl)methylsulfanyl]-3,7-dihydropurin-6-one]
18 | 1.109 | 1.287 | Cc1ccccc1CSc1nc(=O)c2[nH]cnc2[nH]1 [Entry 163, 2-[(2-methylphenyl)methylsulfanyl]-3,7-dihydropurin-6-one]
19 | 1.126 | 1.293 | Cc1oc2ccccc2c1C(=O)CSc1nc(O)c2nc[nH]c2n1 [Entry 164, 2-[(6-hydroxy-9H-purin-2-yl)thio]-1-(2-methyl-1-benzofuran-3-yl)ethanone]
20 | 1.224 | 1.689 | COc1cc(-c2nc(C(N)=O)c3[nH]c(=O)n(CC4CCCO4)c3n2)ccc1O (stereo not drawn) [Entry 165, 2-(4-hydroxy-3-methoxyphenyl)-8-oxo-9-(tetrahydrofuran-2-ylmethyl)-8,9-dihydro-7H-purine-6-carboxamide]
21 | 1.413 | 1.995 | COCc1c(Br)c(C)nc2sc3c(=O)n(-c4ccccc4C(=O)OC)nnc3c12 [Entry 167, methyl 2-(8-bromo-9-(methoxymethyl)-7-methyl-4-oxopyrido[3′,2′:4,5]thieno[3,2-d][1,2,3]triazin-3(4H)-yl)benzoate]
22 | 1.302 | 1.816 | Cc1ccccc1CNC(=O)Cn1cc2c(n1)-c1c(oc(C(=O)N3CCCC3)c1C)CC2 [Entry 170, N-[(2-methylphenyl)methyl]-2-[8-methyl-7-(pyrrolidine-1-carbonyl)-4,5-dihydrofuro[2,3-g]indazol-2-yl]acetamide]
23 | 1.296 | 1.616 | Cc1c(C(=O)N2CCCC2)oc2c1-c1nn(CC(=O)NCc3ccccc3Br)cc1CC2 [Entry 172, N-[(2-bromophenyl)methyl]-2-[8-methyl-7-(pyrrolidine-1-carbonyl)-4,5-dihydrofuro[2,3-g]indazol-2-yl]acetamide]
24 | 1.19 | 1.657 | CCOC(=O)c1cccc(NC(=O)c2oc3c(c2C)-c2nn(CC)cc2CC3)c1 [Entry 173, ethyl 3-[(2-ethyl-8-methyl-4,5-dihydrofuro[2,3-g]indazole-7-carbonyl)amino]benzoate]
25 | 1.094 | 1.352 | Cc1c(C(=O)NCc2ccccc2)oc2c1-c1[nH]ncc1CC2 [Entry 175, N-benzyl-8-methyl-4,5-dihydro-1H-furo[2,3-g]indazole-7-carboxamide]
26 | 1.151 | 1.563 | Cc1c2c(=O)n(-c3nc4ccccc4s3)[nH]c2cc(=O)n1CCc1cnc[nH]1 [Entry 176, 5-(2-(1H-imidazol-5-yl)ethyl)-2-(benzo[d]thiazol-2-yl)-4-methyl-1,2-dihydro-3H-pyrazolo[4,3-c]pyridine-3,6(5H)-dione]
27 | 1.053 | 1.4 | Cc1c2c(=O)n(-c3nc4ccccc4s3)[nH]c2cc(=O)n1Cc1ccc(C(=O)O)cc1 [Entry 177, 4-[[2-(1,3-benzothiazol-2-yl)-4-methyl-3,6-dioxo-1H-pyrazolo[4,3-c]pyridin-5-yl]methyl]benzoic acid]
28 | 1.217 | 1.633 | COc1ccc(-c2n[nH]c3nc(-c4ccc(O)c(O)c4)cc(C(=O)O)c23)cc1 [Entry 178, 6-(3,4-dihydroxyphenyl)-3-(4-methoxyphenyl)-1H-pyrazolo[3,4-b]pyridine-4-carboxylic acid]
29 | 1.303 | 1.736 | Cc1ccc(-c2n[nH]c3nc(-c4ccc(O)c(O)c4)cc(C(=O)O)c23)cc1 [Entry 180, 6-(3,4-dihydroxyphenyl)-3-(p-tolyl)-1H-pyrazolo[3,4-b]pyridine-4-carboxylic acid]
30 | 1.124 | 1.272 | CCOc1cc(-c2cc(C(=O)O)c3c(-c4ccccc4)[nH]nc3n2)ccc1O [Entry 181, 6-(3-ethoxy-4-hydroxyphenyl)-3-phenyl-2H-pyrazolo[3,4-b]pyridine-4-carboxylic acid]

— patent US12171755B2, “PAPD5 inhibitors and methods of use thereof” (Children's Medical Center Corporation, priority 2017, dated 2024)
